Measured values as given in patent US8716315B2, “Analogs of thalidomide as potential angiogenesis inhibitors” (The United States of America as represented by the …, priority 2001, dated 2014).

Key:
[1] = tested on: HUVEC; experiment: HUVEC MTT assay; type: cell-based; details: for inhibition, growth curves treated vs control wells: at about 72 hours
Protocol: HUVEC MTT assays were performed for the selected thalidomide analogs of the present invention to determine a rough estimate of the efficacy of such compounds in the inhibition of angiogenesis. For the MTT assay, 1.0 to 2.5×10^3 cells per well were plated in 96-well plates in 0.1 ml medium, in triplicate. After 24 hours, the cells were exposed to treatment for 5 days. One plate was analyzed every 24 hours by the addition of 20 μL of 5 mg/ml MTT solution (available from Sigma of St. Louis, Mo.) in PBS, to each well for 4 hours. The MTT solution was aspirated and 170 μL DMSO was added to each well to dissolve the formazan crystals. The absorbance at 540 nm was measured using a Biokinetics plate reader (available from Bio-Tek Instruments of Winooski, Vt.). Triplicate wells were assayed for each condition. The assay protocol described herein stems from Kruger et al., a protein kinase C inhibitor, inhibits endothelial cell proliferation and angiogenic hypoxic response, Invasion and Metastasis, 18(4): 209-218 (incorporated herein by reference).
The following results for the selected compounds were determined measured utilizing growth curves comparing control wells to treated wells using the MTT assays.

[2] = tested on: rat aortic rings; experiment: Anti-angiogenic activity utilizing rat aortic rings; type: cell-based, rat (Sprague-Dawley); details: daily dosage of 100 μM, five-day treatment, image analysis vs DMSO control rings; for inhibition at 100 µM: Rattus norvegicus, 120 h, read-out: angiogenesis inhibition activity
Source text: The efficacy of selected thalidomide analogs of the present invention was studied by five-day treatment of rat aortic rings (utilizing Sprague-Dawley rats available from Charles River Labs) with varied doses of the analogs. A DMSO control was utilized (FIG. 1). The results, determined using image analysis comparing control rings versus the treated rings (using NIM Image software), of the studies are as follows: […]

[3] = tested on: human saphenous veins; experiment: Anti-angiogenic activity utilizing human saphenous vein; type: cell-based; details: 336 h, daily dosages of 100 μM, 14 day treatment, image analysis, read-out: angiogenesis inhibition activity level
Protocol: The efficacy of 2-(1-hydroxymethyl-2,6-dioxo-piperidin-3-yl)-1,3-dihydro-2H-isoindole-1,3-dione (CPS11) was studied by 14 day treatment of human saphenous veins (obtained through an IRB-approved protocol, Surgery Brand NCI) with 100 μM doses of the analog. A CAI, carboxyamido-triazole, 12 μg/ml control was utilized.

[4] = Toxicology screen; details: i.p., single dose

SMILES	inhibition at 100 µM [2] [%]	inhibition (cytostatic activity), growth curves treated vs control wells ([1]; 10 μM)	inhibition (cytostatic activity), growth curves treated vs control wells ([1]; 100 μM)	toxicology screen outcome ([4]; 200 mg/kg)	further results
O=C1CCC(N2C(=O)c3ccccc3C2=O)C(=O)N1CO (centres unmarked) [CPS11, 2-(1-hydroxymethyl-2,6-dioxo-piperidin-3-yl)-1,3-dihydro-2H-isoindole-1,3-dione]	90				inhibition, growth curves treated vs control wells ([1]; 10 μM): about 60%; inhibition, growth curves treated vs control wells ([1]; 100 μM): > 90%; inhibition at 100 µM [3]: 90%; toxicology screen outcome ([4]; 10 mg/kg): safe; toxicology screen outcome ([4]; 100 mg/kg): safe; sedation noted ([4]; 10 and 100 mg/kg): Some amount of sedation
CCC1(N2C(=O)c3ccccc3C2=O)C(=O)NC(=O)N(C2CCCCC2)C1=O (centres unmarked) [CPS44, 1-cyclohexyl-5-ethyl-5-phthalimidobarbituric acid]		no such activity	about 50%		angiogenesis inhibition activity [2]: No inhibition of angiogenesis
O=C1NC(=O)C(N2C(=O)c3ccccc3C2=O)CC1O (centres unmarked) [CPS3, 2-(5-hydroxy-2,6-dioxo-piperidin-3-yl)-1H-isoindole-1,3[2H]-dione]	~50	No cytostatic activity	No cytostatic activity		melting point: 195 to 230 °C
Cc1ccc(C)c2c1C(=O)N(c1ccc(F)cc1F)C2=O [CPS42, 2-(2,4-difluorophenyl)-4,7-dimethyl-1H-isoindole-1,3(2H)-dione]		no such activity	about 44%	safe	sedation noted ([4]; 200 mg/kg): Slight sedation; time after injection at which sedation was noted ([4]; 200 mg/kg): ≤ 15 min
O=C1c2c(F)c(F)c(F)c(F)c2C(=O)N1c1c[nH]c(=O)[nH]c1=O [CPS48, 5-(tetrafluorophthalimido)pyrimidine-2,4(1H,3H)-dione]	90	about 85%	about 85%		
O=C1c2c(F)c(F)c(F)c(F)c2C(=O)N1c1ccc(F)cc1F [CPS49, 2-(2,4-difluoro-phenyl)-4,5,6,7-tetrafluoro-1H-isoindole-1,3(2H)-dione]		no such activity	about 90%	lethal dose	angiogenesis inhibition activity [2]: extensive angiogenesis inhibition activity; time to death after treatment ([4]; 200 mg/kg): ≤ 18 h
CCC1(N2C(=O)c3c(F)c(F)c(F)c(F)c3C2=O)C(=O)NC(=O)N(c2ccccc2)C1=O (centres unmarked) [CPS45, 5-ethyl-1-phenyl-5-(tetrafluorophthalimido)barbituric acid]	90	> 90%	> 90%	lethal dose	time to death after treatment ([4]; 200 mg/kg): ≤ 2.5 h
